# Reference: patent publication US20230099803A1, “OXAZOLIDINONE FOR TREATMENT OF INFECTIONS WITH MYCOBACTERIUM TUBERCULOSIS” (priority 2017, published 2023)
# Test system: Mycobacterium tuberculosis
# Type: cell-based
# Settings: 5x and 10x MIC90 of T145, 5 weeks of incubation
compound,measurement,value
"CC(=O)NC[C@H]1CN(c2ccc3c(c2)Oc2ccccc2O3)C(=O)O1 [T145, N-(((S)-3-(dibenzo[b,e][1,4]dioxin-7-yl)-2-oxooxazolidin-5-yl)methyl)acetamide]",frequency of spontaneous mutants that confer resistance,4.0 × 10^-8
